Key:
[1] = New Trypsin Hyperalgesic Assay (NTHA); type: in vivo; details: po, 1 h, read-out: ED50, analgesic activity, NTHA (Rat): dose which reduced the average pain score 50% relative to solvent control
Description: A sensitive mild analgesic assay is the New Trypsin Hyperalgesic Assay (NTHA). At the start of the assay 250 μg of trypsin is injected in one hindlimb of each rat. Thirty minutes later each drug is given per os. One hour after the drugs are given the sensitivity of each rat to a 3.0 kg force is determined.

[2] = Yeast-induced hyperthermia assay, antipyretic activity; type: in vivo; details: po; rat, n exceeds 10
From the text: The Yeast-induced hyperthermia assay was used according to the procedure described by Khalili-Varasteh et al. in Arch. Int. Pharmacodyn.

[3] = Carrageenin Pleurisy Assay (CPA), acute anti-inflammatory activity; type: in vivo, rat; details: po, read-out: ED50, acute anti-inflammatory activity (CPA): dose required to reduce the 3 hour exudate volume by 50%
Description: Following the procedure described by Vinegar et al. in Proc. Soc. Exp. Biol. Med. 151, 5546, (1976), the acute anti-inflammatory activity of the Compound A (defined in Example 16, vide supra) was compared with that of known anti-inflammatory drugs, i.e., aspirin an acetaminophen in the rat. The average 3 hour exudate volume for each drug treated group was determined and the % inhibition relative to a solvent control group calculated, the ED50 being the dose required to reduce the 3 hour exudate volume by 50%.

[4] = Acetic Acid Writhing Test (AAWT), mouse; type: in vivo; details: po, read-out: ED50, analgesic activity, AAWT (Mouse)
From the text: (§1) Using the procedure described by Koster et al. in Fed. […] 26, Anti-inflammatory Drugs, Ed.

[5] = Acetic Acid Writhing Test (AAWT), rat; type: in vivo; details: po, read-out: ED50, analgesic activity, AAWT (Rat)
From the text: as §1

Toxicity (LD50) = details: rat, in vivo; Charles River CD rats, males and females
[6] = rat, p.o., 250 μg trypsin in one hindlimb, 3.0 kg force one hour after drug, n exceeds 10

Compound | ED50 [1, 6] | ED50 [2] | ED50 ([3]; Rattus norvegicus, 3 h) | ED50 ([1]; Rattus norvegicus) | ED50 ([4]; Mus musculus) | ED50 ([5]; Rattus norvegicus) | LD50 (Toxicity (LD50)) | ED50 ([3]; rat, p.o., 3 hour exudate volume, n exceeds 10) | ED50 ([4]; mouse, p.o., n exceeds 10) | ED50 ([5]; rat, p.o., n exceeds 10)
CC(=O)Nc1ccc(O)cc1 [Acetaminophen] | 13 ± 1.7 mg/kg | 72 ± 8.6 mg/kg |  |  |  |  |  |  |  | 
CC(=O)Oc1ccccc1C(=O)O [Aspirin] |  | 50 ± 8.1 mg/kg | 28 ± 3.2 mg/kg | 14 ± 2.7 mg/kg | 21 ± 3.4 mg/kg | 137 ± 16.9 mg/kg |  |  |  | 
OC[C@H]1O[C@@H](n2cnc3c(Nc4ccccc4)ccnc32)[C@H](O)[C@@H]1O [Compound A, 7-anilino-3-β-D-ribofuranosyl-3H-imidazo[4,5-b]pyridine] | 0.1 ± 0.03 mg/kg | 0.65 ± 0.06 mg/kg |  |  |  |  | > 100 mg/kg | 0.24 ± 0.063 mg/kg | 0.33 ± 0.038 mg/kg | 0.74 ± 0.093 mg/kg

Source: patent US4780452A, “F-substituted-3-β-D-ribofuranosyl-3H-imidazo[4,5-b]pyridines and pharmaceutical compositions thereof” (Burroughs Wellcome Co., priority 1986, dated 1988)
